Laboratory results published in PMC9556824, “Design, synthesis and computational study of new benzofuran hybrids as dual PI3K/VEGFR2 inhibitors targeting cancer” (Scientific Reports, 2022).
Read-outs that look alike come from different tables or passages of the source.

What was measured:
[1] = tested on: mammary gland breast cancer (MCF-7); assay: Antitumor screening using MTT assay; conditions: for viability at 1.56 µM / viability at 3.125 µM / viability at 6.25 µM / viability at 12.5 µM / viability at 25 µM / viability at 50 µM / viability at 100 µM: MCF7, read-out: Average of Relative viability of cells (%); for Average of Relative viability of cells (%): MCF7
Excerpt: (§2) Hepatocellular carcinoma (HePG2), mammary gland breast cancer (MCF-7), epithelioid carcinoma cervix cancer (Hela), and human prostate cancer were included on the panel (PC3). […] The cell lines were obtained from the American Type Culture Collection (ATCC) through VACSERA, a Cairo-based holding firm for biological goods and vaccines.
(§3) The panel consisted of hepatocellular carcinoma (HePG2), mammary gland breast cancer (MCF-7), epithelioid carcinoma cervix cancer (Hela) and human prostate cancer (PC3). Human lung fibroblast (WI38) was used to assay the cytotoxicity effect on normal cell. The cell lines were obtained from ATCC via Holding company for biological products and vaccines (VACSERA), Cairo, Egypt. The cytotoxic activity was defined as the concentration of the compound that causes 50% growth inhibition compared with the growth of untreated cells.

[2] = tested on: human lung fibroblast (WI38); assay: In vitro cytotoxicity against human normal cell line (MTT); format: cell-based; conditions: for IC50: mean ± SD, n = 3; for Average of Relative viability of cells (%): WI38
Excerpt: (§1) The anticancer agent's selectivity for cancer cells is a critical consideration for any researcher, as it can decrease the molecule's adverse effects on normal human cells.

[3] = as above; format: cell-based; conditions: human, WI38 human lung fibroblast cells (normal cell line), WI38, read-out: Average of Relative viability of cells (%); for viability at 1.56 µM: Conc. 1.56 µM; for viability at 3.125 µM: Conc. 3.125 µM; for viability at 6.25 µM: Conc. 6.25 µM; for viability at 12.5 µM: Conc. 12.5 µM; for viability at 25 µM: Conc. 25 µM; for viability at 50 µM: Conc. 50 µM; for viability at 100 µM: Conc. 100 µM
Excerpt: as §1

[4] = tested on: HePG2, MCF-7, Hela, PC3 cell lines; assay: Antitumor screening using MTT assay, statements across several cell lines; format: cell-based, human; conditions: HePG2, MCF-7, Hela, PC3
Excerpt: as §2, §3

[5] = tested on: epithelioid carcinoma cervix cancer (Hela); assay: Antitumor screening using MTT assay; conditions: for viability at 1.56 µM / viability at 3.125 µM / viability at 6.25 µM / viability at 12.5 µM / viability at 25 µM / viability at 50 µM / viability at 100 µM: read-out: Average of Relative viability of cells (%); for IC50: read-out: In-vitro cytotoxicity IC50 (µM) Hela
Excerpt: as §2, §3

[6] = tested on: Hepatocellular carcinoma (HePG2); assay: Antitumor screening using MTT assay; format: cell-based, human; conditions: for viability at 1.56 µM / viability at 3.125 µM / viability at 6.25 µM / viability at 12.5 µM / viability at 25 µM / viability at 50 µM / viability at 100 µM: read-out: Average of Relative viability of cells (%); for IC50: mean ± SD, n = 3, read-out: In-vitro cytotoxicity IC50 (µM) HePG2
Excerpt: as §2, §3

[7] = tested on: human prostate cancer (PC3); assay: Antitumor screening using MTT assay; conditions: for viability at 1.56 µM / viability at 3.125 µM / viability at 6.25 µM / viability at 12.5 µM / viability at 25 µM / viability at 50 µM / viability at 100 µM: read-out: Average of Relative viability of cells (%); for IC50: read-out: In-vitro cytotoxicity IC50 (µM) PC3
[8] = Homo sapiens, MCF7, read-out: In-vitro cytotoxicity IC50 (µM) MCF-7
[9] = Homo sapiens, WI-38, human normal cell line WI38

Compound: C/C(=N\NC(=O)Nc1ccc(Cl)cc1)c1cc2ccccc2o1 [Compound 7, (E)-2-[1-(benzofuran-2-yl)ethylidene]-N-(4-chlorophenyl)hydrazine-1-carboxamide]
- melting point: 235 to 237 °C
- viability at 1.56 µM ([1]; Homo sapiens): 100%
- viability at 3.125 µM ([1]; Homo sapiens): 100%
- viability at 6.25 µM ([1]; Homo sapiens): 97.6%
- viability at 12.5 µM ([1]; Homo sapiens): 88.9%
- viability at 25 µM ([1]; Homo sapiens): 70.2%
- viability at 50 µM ([1]; Homo sapiens): 58%
- viability at 100 µM ([1]; Homo sapiens): 47.8%
- IC50 [1, 8]: 76.9 ± 3.8 µM
- IC50 [2, 9]: > 100 µM
- viability at 1.56 µM [3]: 100%
- viability at 3.125 µM [3]: 100%
- viability at 6.25 µM [3]: 100%
- viability at 12.5 µM [3]: 100%
- viability at 25 µM [3]: 89.3%
- viability at 50 µM [3]: 76.2%
- viability at 100 µM [3]: 55.5%
- anticancer activity towards the four / all assessed cell lines (grade) [4]: weak (51–100 (weak))
- viability at 1.56 µM ([5]; Homo sapiens, HeLa): 100%
- viability at 3.125 µM ([5]; Homo sapiens, HeLa): 100%
- viability at 6.25 µM ([5]; Homo sapiens, HeLa): 93.8%
- viability at 12.5 µM ([5]; Homo sapiens, HeLa): 80.7%
- viability at 25 µM ([5]; Homo sapiens, HeLa): 68.4%
- viability at 50 µM ([5]; Homo sapiens, HeLa): 56.3%
- viability at 100 µM ([5]; Homo sapiens, HeLa): 42.9%
- IC50 ([5]; Homo sapiens, HeLa): 66 ± 3.2 µM
- viability at 1.56 µM ([6]; Homo sapiens, Conc. 1.56 µM): 100%
- viability at 3.125 µM ([6]; Homo sapiens, Conc. 3.125 µM): 100%
- viability at 6.25 µM ([6]; Homo sapiens, Conc. 6.25 µM): 99.7%
- viability at 12.5 µM ([6]; Homo sapiens, Conc. 12.5 µM): 87.4%
- viability at 25 µM ([6]; Homo sapiens, Conc. 25 µM): 72.5%
- viability at 50 µM ([6]; Homo sapiens, Conc. 50 µM): 60.2%
- viability at 100 µM ([6]; Homo sapiens, Conc. 100 µM): 48.1%
- IC50 ([6]; Homo sapiens): 81.6 ± 3.9 µM
- viability at 1.56 µM ([7]; Homo sapiens): 100%
- viability at 3.125 µM ([7]; Homo sapiens): 100%
- viability at 6.25 µM ([7]; Homo sapiens): 100%
- viability at 12.5 µM ([7]; Homo sapiens): 93.6%
- viability at 25 µM ([7]; Homo sapiens): 76.5%
- viability at 50 µM ([7]; Homo sapiens): 64.8%
- viability at 100 µM ([7]; Homo sapiens): 50.9%
- IC50 ([7]; Homo sapiens): 93.9 ± 4.7 µM

Compound: O=C(/C=C/N1CCCCC1)c1cc2ccccc2o1 [Compound 5, (E)-1-(benzofuran-2-yl)-3-(piperidin-1-yl)prop-2-en-1-one]
- melting point: 136 to 138 °C
- viability at 1.56 µM ([1]; Homo sapiens): 100%
- viability at 3.125 µM ([1]; Homo sapiens): 96.2%
- viability at 6.25 µM ([1]; Homo sapiens): 72.1%
- viability at 12.5 µM ([1]; Homo sapiens): 54.9%
- viability at 25 µM ([1]; Homo sapiens): 41.8%
- viability at 50 µM ([1]; Homo sapiens): 32.5%
- viability at 100 µM ([1]; Homo sapiens): 20.4%
- IC50 [1, 8]: 19.9 ± 1.5 µM
- IC50 [2, 9]: 64 ± 3.1 µM
- viability at 1.56 µM [3]: 100%
- viability at 3.125 µM [3]: 100%
- viability at 6.25 µM [3]: 100%
- viability at 12.5 µM [3]: 91.8%
- viability at 25 µM [3]: 72.3%
- viability at 50 µM [3]: 57.1%
- viability at 100 µM [3]: 38.2%
- viability at 1.56 µM ([5]; Homo sapiens, HeLa): 100%
- viability at 3.125 µM ([5]; Homo sapiens, HeLa): 96.6%
- viability at 6.25 µM ([5]; Homo sapiens, HeLa): 79.3%
- viability at 12.5 µM ([5]; Homo sapiens, HeLa): 62.9%
- viability at 25 µM ([5]; Homo sapiens, HeLa): 51.4%
- viability at 50 µM ([5]; Homo sapiens, HeLa): 38.1%
- viability at 100 µM ([5]; Homo sapiens, HeLa): 26.3%
- IC50 ([5]; Homo sapiens, HeLa): 28.3 ± 2.2 µM
- viability at 1.56 µM ([6]; Homo sapiens, Conc. 1.56 µM): 100%
- viability at 3.125 µM ([6]; Homo sapiens, Conc. 3.125 µM): 76.8%
- viability at 6.25 µM ([6]; Homo sapiens, Conc. 6.25 µM): 65%
- viability at 12.5 µM ([6]; Homo sapiens, Conc. 12.5 µM): 42.3%
- viability at 25 µM ([6]; Homo sapiens, Conc. 25 µM): 37.2%
- viability at 50 µM ([6]; Homo sapiens, Conc. 50 µM): 24%
- viability at 100 µM ([6]; Homo sapiens, Conc. 100 µM): 15.3%
- IC50 ([6]; Homo sapiens): 12.6 ± 1 µM
- viability at 1.56 µM ([7]; Homo sapiens): 100%
- viability at 3.125 µM ([7]; Homo sapiens): 100%
- viability at 6.25 µM ([7]; Homo sapiens): 92.7%
- viability at 12.5 µM ([7]; Homo sapiens): 67.2%
- viability at 25 µM ([7]; Homo sapiens): 58.1%
- viability at 50 µM ([7]; Homo sapiens): 47.8%
- viability at 100 µM ([7]; Homo sapiens): 32.9%
- IC50 ([7]; Homo sapiens): 41.5 ± 2.6 µM

Compound: 2-(benzofuran-2-yl)-1-(4-methylpiperazin-1-yl)ethanethione [Compound 3]
- Average of Relative viability of cells (%) ([1]; Conc. 1.56 µM): 100%
- Average of Relative viability of cells (%) ([1]; Conc. 3.125 µM): 100%
- Average of Relative viability of cells (%) ([1]; Conc. 6.25 µM): 94.7%
- Average of Relative viability of cells (%) ([1]; Conc. 12.5 µM): 72.4%
- Average of Relative viability of cells (%) ([1]; Conc. 25 µM): 61.3%
- Average of Relative viability of cells (%) ([1]; Conc. 50 µM): 47.6%
- Average of Relative viability of cells (%) ([1]; Conc. 100 µM): 33.9%
- IC50 ([1]; read-out: In-vitro cytotoxicity IC50 (µM) MCF-7, MCF-7, mean ± SD, n = 3): 45.1 ± 2.9 µM
- Average of Relative viability of cells (%) ([2]; Conc. 1.56 µM): 100%
- Average of Relative viability of cells (%) ([2]; Conc. 3.125 µM): 100%
- Average of Relative viability of cells (%) ([2]; Conc. 6.25 µM): 97.0%
- Average of Relative viability of cells (%) ([2]; Conc. 12.5 µM): 85.3%
- Average of Relative viability of cells (%) ([2]; Conc. 25 µM): 71.8%
- Average of Relative viability of cells (%) ([2]; Conc. 50 µM): 59.2%
- Average of Relative viability of cells (%) ([2]; Conc. 100 µM): 47.4%
- IC50 ([2]; human normal cell line WI38): 78.5 ± 3.8 µM
- anticancer activity towards the four / all assessed cell lines (grade) [4]: weak (51–100 (weak))
- Average of Relative viability of cells (%) ([5]; Hela, Conc. 1.56 µM): 100%
- Average of Relative viability of cells (%) ([5]; Hela, Conc. 3.125 µM): 100%
- Average of Relative viability of cells (%) ([5]; Hela, Conc. 6.25 µM): 97.1%
- Average of Relative viability of cells (%) ([5]; Hela, Conc. 12.5 µM): 75.9%
- Average of Relative viability of cells (%) ([5]; Hela, Conc. 25 µM): 64.8%
- Average of Relative viability of cells (%) ([5]; Hela, Conc. 50 µM): 50.7%
- Average of Relative viability of cells (%) ([5]; Hela, Conc. 100 µM): 36.1%
- IC50 ([5]; Hela, mean ± SD, n = 3): 51.4 ± 3.1 µM
- Average of Relative viability of cells (%) ([6]; Conc. 1.56 µM): 100%
- Average of Relative viability of cells (%) ([6]; Conc. 3.125 µM): 100%
- Average of Relative viability of cells (%) ([6]; Conc. 6.25 µM): 82.4%
- Average of Relative viability of cells (%) ([6]; Conc. 12.5 µM): 76.1%
- Average of Relative viability of cells (%) ([6]; Conc. 25 µM): 50.2%
- Average of Relative viability of cells (%) ([6]; Conc. 50 µM): 42.8%
- Average of Relative viability of cells (%) ([6]; Conc. 100 µM): 29.5%
- IC50 [6]: 34.8 ± 2.5 µM
- Average of Relative viability of cells (%) ([7]; PC3, Conc. 1.56 µM): 100%
- Average of Relative viability of cells (%) ([7]; PC3, Conc. 3.125 µM): 100%
- Average of Relative viability of cells (%) ([7]; PC3, Conc. 6.25 µM): 100%
- Average of Relative viability of cells (%) ([7]; PC3, Conc. 12.5 µM): 92.8%
- Average of Relative viability of cells (%) ([7]; PC3, Conc. 25 µM): 71.9%
- Average of Relative viability of cells (%) ([7]; PC3, Conc. 50 µM): 59.5%
- Average of Relative viability of cells (%) ([7]; PC3, Conc. 100 µM): 37.5%
- IC50 ([7]; PC3, mean ± SD, n = 3): 65 ± 3.2 µM
